One experiment deals with HCT116 WT cells. In words: HCT116 WT cell proliferation / viability (CellTiter-Glo, 6 days). Conditions: Homo sapiens, HCT-116, 144 h, HCT116 WT cells, 6 days, CellTiter-Glo; read-out: HCT-116 WT IC50. In kind it is cell-based. In a few lines: (§1)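 IC50 values derive from sigmoidal dose-response fits, some with Hill slope fixed at −1 and top constrained to 100%, others from 4-parameter logistic models. They reflect CellTiter-Glo viability after 6 days of compound exposure at up to 10 or 50 μM.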
For orientation: Cellular ATP, detected with luciferase, serves as a proxy for viable cell number.

The next experiment deals with HCT116 MTAP null cells. Put plainly: HCT116 MTAP null cell proliferation / viability (CellTiter-Glo, 6 days). Conditions: HCT116-MTAP null, 144 h, HCT116 MTAP null cells, 6 days, CellTiter-Glo; read-out: HCT-116 MTAP null IC50. In kind it is cell-based. In a few lines:
as §1

One may read the IC50 as the concentration that inhibits the measured activity by half. For `CCN(Cc1cnc(C(F)(F)F)cn1)C(=O)c1cc2c3c(c(N)nc2cc1F)COC3` [Example 497, 4-amino-N-ethyl-7-fluoro-N-((5-(trifluoromethyl)-2-pyrazinyl)methyl)-1,3-dihydrofuro[3,4-c]quinoline-8-carboxamide], the IC50 in the experiment with HCT116 WT cells stood at 3520 nM; in the experiment on HCT116 MTAP null cells, 250 nM.

For `CCN(Cc1cnc(C(F)(F)F)cn1)C(=O)c1cc2c3c(c(N)nc2cc1Cl)COC3` [Example 498, 4-amino-7-chloro-N-ethyl-N-((5-(trifluoromethyl)-2-pyrazinyl)methyl)-1,3-dihydrofuro[3,4-c]quinoline-8-carboxamide], the results for the IC50 in the experiment on HCT116 WT cells and in the experiment with HCT116 MTAP null cells were 12700 nM and 266 nM, respectively.

As to `CC(C)N(Cc1cnc(C(F)(F)F)cn1)C(=O)c1cc2c3c(c(N)nc2cc1Cl)COC3` [Example 499, 4-amino-7-chloro-N-(2-propanyl)-N-((5-(trifluoromethyl)-2-pyrazinyl)methyl)-1,3-dihydrofuro[3,4-c]quinoline-8-carboxamide], the IC50 turned out to be 4140 nM in the experiment with HCT116 WT cells and 164 nM in the experiment with HCT116 MTAP null cells.

On to `CCN(Cc1cnc(C(F)(F)F)cn1)C(=O)c1ccc2nc(N)c3c(c2c1)CO[C@@H]3C` [Example 500, (3R)-4-amino-N-ethyl-3-methyl-N-((5-(trifluoromethyl)-2-pyrazinyl)methyl)-1,3-dihydrofuro[3,4-c]quinoline-8-carboxamide], for which the results for the IC50 in the experiment on HCT116 WT cells and with HCT116 MTAP null cells were 32500 nM and 595 nM, respectively.

`Nc1nc2cc(F)c(C(=O)N(Cc3ccc(C(F)(F)F)nn3)C3CCC3)cc2c2c1COC2` [Example 501, 4-amino-N-cyclobutyl-7-fluoro-N-((6-(trifluoromethyl)-3-pyridazinyl)methyl)-1,3-dihydrofuro[3,4-c]quinoline-8-carboxamide]: the IC50 came to 1200 nM in the experiment on HCT116 WT cells and 46 nM in the experiment on HCT116 MTAP null cells.

Consider `COc1cc2nc(N)c3c(c2cc1C(=O)N(C)Cc1ccc(C(F)(F)F)cn1)COC3` [Example 502, 4-amino-7-methoxy-N-methyl-N-((5-(trifluoromethyl)-2-pyridinyl)methyl)-1,3-dihydrofuro[3,4-c]quinoline-8-carboxamide], for which the figures for the IC50 in the experiment with HCT116 WT cells and in the experiment on HCT116 MTAP null cells were 47300 nM and 3930 nM, respectively.

As for `Cc1cc2nc(N)c3c(c2cc1C(=O)N(C)Cc1ccc(C(F)(F)F)cn1)COC3` [Example 503, 4-amino-N,7-dimethyl-N-((5-(trifluoromethyl)-2-pyridinyl)methyl)-1,3-dihydrofuro[3,4-c]quinoline-8-carboxamide], the results for the IC50 in the experiment with HCT116 WT cells and in the experiment with HCT116 MTAP null cells were 2000 nM and 56 nM, respectively.

On to `Cn1ncc2c3cc(C(=O)N(Cc4ccc(C(F)(F)F)nn4)C4CCC4)c(F)cc3nc(N)c21` [Example 504, 4-amino-N-cyclobutyl-7-fluoro-3-methyl-N-((6-(trifluoromethyl)-3-pyridazinyl)methyl)-3H-pyrazolo[3,4-c]quinoline-8-carboxamide], for which the results for the IC50 in the experiment with HCT116 WT cells and in the experiment on HCT116 MTAP null cells were 1850 nM and 56 nM, respectively.

Consider `Nc1nc2cc(Cl)c(C(=O)N(Cc3ccc(C(F)(F)F)nn3)C3CCC3)cc2c2c1COC2` [Example 505, 4-amino-7-chloro-N-cyclobutyl-N-((6-(trifluoromethyl)-3-pyridazinyl)methyl)-1,3-dihydrofuro[3,4-c]quinoline-8-carboxamide], for which the results for the IC50 with HCT116 WT cells and with HCT116 MTAP null cells were 662 nM and 22 nM, respectively.

For `Cn1cc(N(Cc2ccc(C(F)(F)F)cn2)C(=O)c2cc3c(cc2F)nc(N)c2c3cnn2C)cn1` [Example 506, 4-amino-7-fluoro-3-methyl-N-(1-methyl-1H-pyrazol-4-yl)-N-((5-(trifluoromethyl)-2-pyridinyl)methyl)-3H-pyrazolo[3,4-c]quinoline-8-carboxamide], the IC50 with HCT116 WT cells turned out to be 369 nM; in the experiment on HCT116 MTAP null cells it was 9 nM.

`Cn1cc(N(Cc2ccc(C(F)(F)F)cn2)C(=O)c2cc3c(cn2)nc(N)c2cnn(C)c23)cn1` [Example 507, 4-amino-1-methyl-N-(1-methyl-1H-pyrazol-4-yl)-N-((5-(trifluoromethyl)-2-pyridinyl)methyl)-1H-pyrazolo[4,3-c][1,7]naphthyridine-8-carboxamide]: the IC50 was 373 nM in the experiment with HCT116 WT cells and 25 nM in the experiment on HCT116 MTAP null cells.

Take `C[C@H](c1ccc(C(F)(F)F)cn1)N(C(=O)c1cc2c(cc1F)nc(N)c1c2cnn1C)C1CC1` [Example 508, 4-amino-N-cyclopropyl-7-fluoro-3-methyl-N-((1R)-1-(5-(trifluoromethyl)-2-pyridinyl)ethyl)-3H-pyrazolo[3,4-c]quinoline-8-carboxamide]: the concentration for half-maximal inhibition (IC50) with HCT116 WT cells stood at 2840 nM; with HCT116 MTAP null cells, 60 nM.

As for `Nc1nc2cc(F)c(C(=O)N(Cc3ccc(OC(F)F)nn3)C3CCC3)cc2c2c1COC2` [Example 509, 4-amino-N-cyclobutyl-N-((6-(difluoromethoxy)-3-pyridazinyl)methyl)-7-fluoro-1,3-dihydrofuro[3,4-c]quinoline-8-carboxamide], the figures for the IC50 with HCT116 WT cells and in the experiment on HCT116 MTAP null cells were 878 nM and 40 nM, respectively.

Regarding `CN(Cc1ccc(S(F)(F)(F)(F)F)cc1)C(=O)c1ccc2nc(N)c3c(c2c1)COC3` [Example 510, 4-amino-N-methyl-N-(4-(pentafluoro-lambda~6~- sulfanyl)benzyl)-1,3-dihydrofuro[3,4-c]quinoline-8-carboxamide], the concentration for half-maximal inhibition (IC50) with HCT116 WT cells turned out to be 2660 nM; in the experiment on HCT116 MTAP null cells it was 65 nM.

Regarding `CN(Cc1ccc(S(F)(F)(F)(F)F)cc1)C(=O)c1cc2c3c(c(N)nc2cn1)COC3` [Example 511, 4-amino-N-methyl-N-(4-(pentafluoro-lambda~6~- sulfanyl)benzyl)-1,3-dihydrofuro[3,4-c][1,7]naphthyridine-8-carboxamide], the IC50 in the experiment with HCT116 WT cells amounted to 4920 nM; with HCT116 MTAP null cells, 122 nM.

On to `CN(Cc1ccc(S(F)(F)(F)(F)F)cc1)C(=O)c1cc2c3c(c(N)nc2cc1F)COC3` [Example 512, 4-amino-7-fluoro-N-methyl-N-(4-(pentafluoro-lambda~6~- sulfanyl)benzyl)-1,3-dihydrofuro[3,4-c]quinoline-8-carboxamide], for which the results for the IC50 with HCT116 WT cells and with HCT116 MTAP null cells were 1380 nM and 38 nM, respectively.

Take `CN(Cc1ccc(S(F)(F)(F)(F)F)cc1)C(=O)c1cc2c3c(c(N)nc2cc1Cl)COC3` [Example 513, 4-amino-7-chloro-N-methyl-N-(4-(pentafluoro-lambda~6~- sulfanyl)benzyl)-1,3-dihydrofuro[3,4-c]quinoline-8-carboxamide]: the IC50 in the experiment with HCT116 WT cells was 848 nM; in the experiment with HCT116 MTAP null cells, 19 nM.

As for `C[C@H]1OCc2c1c(N)nc1ccc(C(=O)N(C)Cc3ccc(S(F)(F)(F)(F)F)cc3)cc21` [Example 514, (3R)-4-amino-N,3-dimethyl-N-(4-(pentafluoro-lambda~6~- sulfanyl)benzyl)-1,3-dihydrofuro[3,4-c]quinoline-8-carboxamide], the IC50 in the experiment with HCT116 WT cells was 3250 nM; with HCT116 MTAP null cells it was 71 nM.

Regarding `CN(Cc1ccc(S(F)(F)(F)(F)F)cc1)C(=O)c1cc2c(cc1F)nc(N)c1c2cnn1C` [Example 515, 4-amino-7-fluoro-N,3-dimethyl-N-(4-(pentafluoro-lambda~6~- sulfanyl)benzyl)-3H-pyrazolo[3,4-c]quinoline-8-carboxamide], the IC50 in the experiment with HCT116 WT cells was found to be 3350 nM; in the experiment on HCT116 MTAP null cells, 80 nM.

`Cc1cc2nc(N)c3cnn(C)c3c2cc1C(=O)N(C)Cc1ccc(F)cn1` [Example 516, 4-amino-N-((5-fluoro-2-pyridinyl)methyl)-N,1,7-trimethyl-1H-pyrazolo[4,3-c]quinoline-8-carboxamide]: the figures for the IC50 with HCT116 WT cells and with HCT116 MTAP null cells were 9320 nM and 167 nM, respectively.

Turning to `CN(Cc1ccc(C2CC2)nn1)C(=O)c1cc2c(cc1F)nc(N)c1c2cnn1C` [Example 517, 4-amino-N-((6-cyclopropyl-3-pyridazinyl)methyl)-7-fluoro-N,3-dimethyl-3H-pyrazolo[3,4-c]quinoline-8-carboxamide], the results for the IC50 in the experiment with HCT116 WT cells and in the experiment on HCT116 MTAP null cells were 45400 nM and 706 nM, respectively.

As to `CN(Cc1ccc(C2CC2)nn1)C(=O)c1cc2c(cc1F)nc(N)c1cnn(C)c12` [Example 518, 4-amino-N-((6-cyclopropyl-3-pyridazinyl)methyl)-7-fluoro-N,1-dimethyl-1H-pyrazolo[4,3-c]quinoline-8-carboxamide], the IC50 in the experiment on HCT116 WT cells came to 6270 nM; with HCT116 MTAP null cells, 106 nM.

Turning to `CN(Cc1ccc(C2CC2)nn1)C(=O)c1cc2c3c(c(N)nc2cc1Cl)COC3` [Example 519, 4-amino-7-chloro-N-((6-cyclopropyl-3-pyridazinyl)methyl)-N-methyl-1,3-dihydrofuro[3,4-c]quinoline-8-carboxamide], the values for the IC50 in the experiment with HCT116 WT cells and in the experiment with HCT116 MTAP null cells were 14000 nM and 187 nM, respectively.

As to `Cc1cc2nc(N)c3c(cnn3C)c2cc1C(=O)N(C)Cc1ccc(C(F)(F)F)cn1` [Example 520, 4-amino-N,3,7-trimethyl-N-((5-(trifluoromethyl)-2-pyridinyl)methyl)-3H-pyrazolo[3,4-c]quinoline-8-carboxamide], the IC50 with HCT116 WT cells is 9060 nM; with HCT116 MTAP null cells, 149 nM.

`Cc1cc2nc(N)c3cnn(C)c3c2cc1C(=O)N(C)Cc1ccc(C(F)(F)F)cn1` [Example 521, 4-amino-N,1,7-trimethyl-N-((5-(trifluoromethyl)-2-pyridinyl)methyl)-1H-pyrazolo[4,3-c]quinoline-8-carboxamide]: the IC50 with HCT116 WT cells was 698 nM; in the experiment with HCT116 MTAP null cells, 18 nM.

`CC(C)N(Cc1ccc(C2CC2)cn1)C(=O)c1cc2c(cc1F)nc(N)c1c2cnn1C` [Example 522, 4-amino-N-((5-cyclopropyl-2-pyridinyl)methyl)-7-fluoro-3-methyl-N-(2-propanyl)-3H-pyrazolo[3,4-c]quinoline-8-carboxamide]: the figures for the IC50 with HCT116 WT cells and in the experiment with HCT116 MTAP null cells were 380 nM and 14 nM, respectively.

Consider `CN(Cc1ccc(Cl)cn1)C(=O)c1ccc2nc(N)c3cnn(C)c3c2c1` [Example 523, 4-amino-N-((5-chloro-2-pyridinyl)methyl)-N,1-dimethyl-1H-pyrazolo[4,3-c]quinoline-8-carboxamide], for which the results for the IC50 in the experiment on HCT116 WT cells and in the experiment with HCT116 MTAP null cells were 6790 nM and 72 nM, respectively.

Values taken from patent US20240101570A1 (AMGEN INC., priority 2020, published 2024).
